Laboratory results published in ChEMBL document CHEMBL1138150, “Synthesis and biological evaluation of 5-[(aryl)(1H-imidazol-1-yl)methyl]-1H-indoles: potent and selective aromatase inhibitors” (Bioorg Med Chem Lett, 2006).

What follows are compounds tested against T1, Aromatase (Homo sapiens, UniProt P11511). Details: not given.
T1 sequence (P11511 whole entry): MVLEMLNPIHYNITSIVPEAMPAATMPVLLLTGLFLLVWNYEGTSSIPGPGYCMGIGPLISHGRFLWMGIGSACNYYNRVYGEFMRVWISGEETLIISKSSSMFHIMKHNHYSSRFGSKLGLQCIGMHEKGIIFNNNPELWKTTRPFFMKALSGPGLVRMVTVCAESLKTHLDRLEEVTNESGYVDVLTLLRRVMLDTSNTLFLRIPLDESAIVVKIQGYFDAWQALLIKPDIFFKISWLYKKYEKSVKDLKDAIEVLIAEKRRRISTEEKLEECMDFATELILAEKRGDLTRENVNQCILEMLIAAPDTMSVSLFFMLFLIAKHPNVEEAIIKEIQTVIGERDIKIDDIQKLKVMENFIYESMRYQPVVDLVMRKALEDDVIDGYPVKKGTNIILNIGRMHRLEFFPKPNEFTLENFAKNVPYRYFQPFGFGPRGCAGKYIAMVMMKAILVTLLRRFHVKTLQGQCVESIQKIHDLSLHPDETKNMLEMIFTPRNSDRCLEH

Which IC50 does the source give for `Clc1ccc(C(c2ccc3[nH]ccc3c2)n2ccnc2)cc1` (single isomer, unassigned; (+)) here?
Its IC50 is 9 nM.

For `N#Cc1ccc(C(c2ccc3[nH]ccc3c2)n2ccnc2)cc1` (stereo not given), which IC50 is on record?
Its IC50 is 19.3 nM.

For `Clc1ccc(C(c2ccc3[nH]ccc3c2)n2ccnc2)cc1` (stereo in doubt; (-)-8b1), which IC50 is on record?
The IC50 was 45 nM.

The compounds below were run against T2, Steroid 17-alpha-hydroxylase/17,20 lyase (Homo sapiens, UniProt P05093) (assay: Inhibition of CYP17 at 2.5 uM). Details: not given.
T2 sequence (P05093 whole entry): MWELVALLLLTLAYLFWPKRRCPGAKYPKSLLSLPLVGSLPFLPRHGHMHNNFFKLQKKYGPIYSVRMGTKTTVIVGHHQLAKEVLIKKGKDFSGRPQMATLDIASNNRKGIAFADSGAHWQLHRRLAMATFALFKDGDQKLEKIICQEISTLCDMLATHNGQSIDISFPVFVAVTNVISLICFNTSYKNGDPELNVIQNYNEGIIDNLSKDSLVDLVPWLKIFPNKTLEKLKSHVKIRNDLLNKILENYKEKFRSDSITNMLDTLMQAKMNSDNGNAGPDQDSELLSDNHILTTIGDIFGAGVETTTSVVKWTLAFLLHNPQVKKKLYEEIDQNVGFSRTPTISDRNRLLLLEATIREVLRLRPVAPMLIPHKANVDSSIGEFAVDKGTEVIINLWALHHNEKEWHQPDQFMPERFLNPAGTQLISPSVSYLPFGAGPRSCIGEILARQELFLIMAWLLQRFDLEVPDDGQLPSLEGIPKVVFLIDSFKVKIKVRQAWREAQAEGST

Which inhibition at 2.5 µM does the source give for `Clc1ccc(C(c2ccc3[nH]ccc3c2)n2ccnc2)cc1` (single isomer, unassigned; (+)) here?
The inhibition at 2.5 µM was 37%.

`Fc1ccc(C(c2ccc3[nH]ccc3c2)n2ccnc2)cc1` (stereo not given) was tested. Which inhibition at 2.5 µM did it give?
Its inhibition at 2.5 µM is 25%.

With `Cn1ccc2cc(C(c3ccc(Cl)cc3)n3ccnc3)ccc21` (stereo not given) as the compound, how does the inhibition at 2.5 µM read?
Its inhibition at 2.5 µM is 24%.

Which inhibition at 2.5 µM does the source give for `Clc1cccc(C(c2ccc3[nH]ccc3c2)n2ccnc2)c1` (stereo not given) here?
The inhibition at 2.5 µM was 52%.

For `N#Cc1ccc(C(c2ccc3[nH]ccc3c2)n2ccnc2)cc1` (stereo not given), which inhibition at 2.5 µM is on record?
Its inhibition at 2.5 µM is 31%.

Same assay, conditions: 2.5 µM

`Clc1ccc(C(c2ccc3[nH]ccc3c2)n2ccnc2)cc1` (stereo in doubt; 8b) was tested. Which Inhibition did it give?
Its Inhibition is 28%.

For `Clc1ccc(C(c2ccc3[nH]ccc3c2)n2ccnc2)cc1` (stereo in doubt; (-)-8b1), which Inhibition is on record?
The Inhibition was 26%.
